How the values were obtained:
[1] = tested on: neutrophils; experiment: Phagocytosis assay in neutrophils (flow cytometry); type: cell-based, human
Protocol: To determine whether the reciprocal was true, namely, that TLR activation could inhibit phagocytosis of ICs, the uptake of RNase-treated RNP-ICs was analyzed in presence of the TLR7/8 agonist, R848. […] Specifically, neutrophils were stimulated with R848 prior to incubation with RNase-treated RNP-ICs, HAGG, beads or zymosan. The results are expressed as phagocytosis as compared to no R848 added (% of control). […] Finally, to determine if TLR7/8 activation affected the internalization process and/or the binding ability of the ICs, neutrophils were treated with the cytoskeleton inhibitor Cytochalasin B prior to adding the ICs, thus blocking uptake, but not binding. Specifically, neutrophils, treated with or without R848 followed by cytochalasin B (CytoB, 5 μM), were analyzed for binding and uptake of RNP-ICs by flow cytometry.
SLE IgG, SmRNP and heat-aggregated IgG (HAGG) were labeled with Alexa-647 according to manufacturer's protocol (Life Technologies). Neutrophils, or PBMCs, from healthy individual were stimulated with different ICs, FITC-conjugated latex beads or zymosan (100 μg/mL, Life Technologies) for 30 minutes at 37° C. and immediately analyzed for phagocytosis. In blocking experiments, neutrophils were incubated with 0.1 μM TLR7-9 or control iODN (Enzo Life Sciences), CMK (25 μM, Enzo Life Sciences), cytochalasin B (5 M, Sigma) or antibodies directed against CD16, CD32 or CD64 (all used at 10 μg/mL, BioLegend) for 30 minutes before addition of stimuli. In some experiments, R848, at a concentration of 2 μg/mL, or neutrophil supernatant, was added 30 and 90 minutes before addition of the phagocytic stimuli, respectively.

[2] = tested on: ncf1 (p47 phox); experiment: p47 phox (ncf1) S345 phosphorylation, phosphoproteomics and Western blot; type: cell-based, human; details: R848 activation
Protocol: Another target of TLR7/8 stimulation was ncf1 (p47 phox). Ncf1 was phosphorylated at S345, a known target site involved in activation of the NADPH oxidase complex. […] The experiment was repeated three times; combined results were compared using paired t test (P=0.044). Neutrophils were incubated with R848 in the absence or presence of the PI3K inhibitor Ly294002 and analyzed for pS345 or total levels of p47 phox using Western Blot. The experiment was repeated four times; combined results were compared using paired t test (No stim, P=0.03; R848+LY294002, P=0.0011). […] Briefly, neutrophils were treated with inhibitors of NADPH oxidase prior to addition of R848 and analyzed for cell surface expression of FcgRIIA by flow cytometry. […] Briefly, neutrophils from healthy individuals (HV, n=18) and CGD patients (n=4) were stimulated with R848 and analyzed for FcgRIIA levels by flow cytometry. The data were analyzed using paired t test (HC, P<0.0001) and unpaired t test (HC vs CGD, P=0.0097). Neutrophils from healthy individuals (HV, n=13) and CGD patients (n=3) were activated by R848 and analyzed for CD66b expression by flow cytometry using paired t test (HC, P<0.0001; CGD, P=0.039). […] Briefly, neutrophils were activated with LPS or PAM3CSK4 in presence of DPI and analyzed for FcgRIIA levels by flow cytometry. […]

[3] = neutrophils stimulated with R848 before stimuli, vs no R848

CCOCc1nc2c(N)nc3ccccc3c2n1CC(C)(C)O [R848]
uptake of RNase-treated RNP-ICs and HAGG by neutrophils [1, 3]: significantly decreased uptake of ICs as well as heat-aggregated IgG (HAGG)
uptake of beads and zymosan by neutrophils [1, 3]: increased uptake of beads and zymosan
binding and uptake of RNP-ICs by neutrophils ([1]; with or without R848, followed by cytochalasin B 5 μM): suppressed both IC-mediated binding and subsequent phagocytosis
phosphorylation of ncf1 (p47 phox) at S345 [2]: phosphorylated (p47 phox) at S345

— US20260133193A1, “COMPOSITIONS AND METHODS FOR TREATING INFLAMMATORY DISEASES” (University of Washington, priority 2018, published 2026)
